# Source: article PMC8812461, “Synthesis of New 3-Arylcoumarins Bearing N-Benzyl Triazole Moiety: Dual Lipoxygenase and Butyrylcholinesterase Inhibitors With Anti-Amyloid Aggregation and Neuroprotective Properties Against Alzheimer’s Disease” (Frontiers in Chemistry, 2022)
# Tests used:
# [1] = target: T1, 15-LOX (soybean lipoxygenase) (Glycine max, UniProt P08170); assay: Soybean 15-LOX inhibition assay; assay type: biochemical
# T1 construct: purchased Merck or Aldrich
# T1 sequence (P08170 1-839): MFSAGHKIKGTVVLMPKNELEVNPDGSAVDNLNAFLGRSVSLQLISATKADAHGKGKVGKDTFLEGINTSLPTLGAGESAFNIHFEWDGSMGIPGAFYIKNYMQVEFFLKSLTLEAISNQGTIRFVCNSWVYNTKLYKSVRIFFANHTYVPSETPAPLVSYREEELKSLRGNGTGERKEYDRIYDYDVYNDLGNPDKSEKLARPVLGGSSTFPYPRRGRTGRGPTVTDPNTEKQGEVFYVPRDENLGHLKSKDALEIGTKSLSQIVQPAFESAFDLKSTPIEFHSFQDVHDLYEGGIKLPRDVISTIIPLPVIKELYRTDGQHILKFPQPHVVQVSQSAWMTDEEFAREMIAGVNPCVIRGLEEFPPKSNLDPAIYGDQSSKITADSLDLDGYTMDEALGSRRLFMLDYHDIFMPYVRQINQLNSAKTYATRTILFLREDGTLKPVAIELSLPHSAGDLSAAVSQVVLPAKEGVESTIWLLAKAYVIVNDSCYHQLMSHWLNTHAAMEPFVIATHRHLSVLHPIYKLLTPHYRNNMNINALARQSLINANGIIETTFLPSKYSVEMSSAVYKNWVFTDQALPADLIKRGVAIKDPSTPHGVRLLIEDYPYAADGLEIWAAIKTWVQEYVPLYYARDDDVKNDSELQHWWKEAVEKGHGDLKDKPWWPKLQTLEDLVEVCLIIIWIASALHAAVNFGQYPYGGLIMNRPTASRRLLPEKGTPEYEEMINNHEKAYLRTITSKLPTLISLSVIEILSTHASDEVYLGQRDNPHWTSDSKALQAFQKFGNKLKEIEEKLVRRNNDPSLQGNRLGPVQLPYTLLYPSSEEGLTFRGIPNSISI
# Description: A solution of the target compound was prepared in DMSO, and it was diluted with phosphate buffer (0.1 M, pH = 8.0).
# [2] = target: T2, BuChE (from equine serum) (Equus caballus, UniProt P81908); assay: biochemical; assay type: biochemical; conditions: mean ± SEM of three experiments, read-out: eq BuChE IC50
# T2 construct: BuChE from equine serum was employed for Ellman’s assay; purchased Merck or Aldrich; host or cells: equine serum
# T2 sequence (P81908 whole entry): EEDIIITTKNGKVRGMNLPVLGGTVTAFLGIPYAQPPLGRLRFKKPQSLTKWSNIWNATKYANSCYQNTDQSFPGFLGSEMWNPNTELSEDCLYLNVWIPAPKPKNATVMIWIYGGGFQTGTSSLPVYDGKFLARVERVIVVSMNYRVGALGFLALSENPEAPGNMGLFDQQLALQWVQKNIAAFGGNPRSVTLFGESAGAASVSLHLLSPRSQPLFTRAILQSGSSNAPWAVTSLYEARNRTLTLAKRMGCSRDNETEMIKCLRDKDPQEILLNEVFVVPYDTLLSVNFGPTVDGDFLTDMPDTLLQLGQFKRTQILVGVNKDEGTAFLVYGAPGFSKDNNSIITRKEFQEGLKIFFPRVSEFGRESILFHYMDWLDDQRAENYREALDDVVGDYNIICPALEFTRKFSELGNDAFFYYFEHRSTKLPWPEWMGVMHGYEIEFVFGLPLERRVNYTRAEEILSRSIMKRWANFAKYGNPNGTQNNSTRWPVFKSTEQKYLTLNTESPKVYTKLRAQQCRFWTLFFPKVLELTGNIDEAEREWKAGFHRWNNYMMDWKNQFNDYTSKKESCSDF
# Description: (§1) AChE from electrophorus electricus and BuChE from equine serum was employed for Ellman’s assay. Each compound (5.0 mg) was dissolved in 1.0 ml of DMSO. […] Briefly, a mixture of phosphate buffer (2.0 ml, 0.1 M, pH = 8.0), 60.0 µl of DTNB solution, and 20.0 µl of AChE/BuChE was prepared, and 30.0 µl of the test compounds in different concentrations were then added to the mixture. Next, a solution of the substrate (acetylthiocholine iodide/butyrylthiocholine iodide, 20.0 µl) was added to the mixture after 10 min incubation at 25°C. All experiments were performed in triplicates, and the temperature of all solutions was controlled to be maintained at 25°C. […] The blank solution was used to validate the non-enzymatic hydrolysis of the substrate during the assessment. The blank solution was prepared by a mixture of 2.0 ml of buffer, 30.0 μl of DMSO, 60.0 μl of DTNB, and 20.0 μl of substrate. The rate of the enzymatic hydrolysis of the substrate was calculated, and % inhibition of the compounds was determined. The half maximal inhibitory concentration (IC50) values were graphically determined from inhibition curves (logarithm of the concentration of the tested compound versus percent of the inhibition).
# [3] = target: T3, AChE (from electrophorus electricus) (Electrophorus electricus, UniProt O42275); assay: Cholinesterase inhibition assay (Ellman's method), AChE; assay type: biochemical; conditions: test concentration not given
# T3 construct: purchased Merck or Aldrich
# T3 sequence (O42275 24-633): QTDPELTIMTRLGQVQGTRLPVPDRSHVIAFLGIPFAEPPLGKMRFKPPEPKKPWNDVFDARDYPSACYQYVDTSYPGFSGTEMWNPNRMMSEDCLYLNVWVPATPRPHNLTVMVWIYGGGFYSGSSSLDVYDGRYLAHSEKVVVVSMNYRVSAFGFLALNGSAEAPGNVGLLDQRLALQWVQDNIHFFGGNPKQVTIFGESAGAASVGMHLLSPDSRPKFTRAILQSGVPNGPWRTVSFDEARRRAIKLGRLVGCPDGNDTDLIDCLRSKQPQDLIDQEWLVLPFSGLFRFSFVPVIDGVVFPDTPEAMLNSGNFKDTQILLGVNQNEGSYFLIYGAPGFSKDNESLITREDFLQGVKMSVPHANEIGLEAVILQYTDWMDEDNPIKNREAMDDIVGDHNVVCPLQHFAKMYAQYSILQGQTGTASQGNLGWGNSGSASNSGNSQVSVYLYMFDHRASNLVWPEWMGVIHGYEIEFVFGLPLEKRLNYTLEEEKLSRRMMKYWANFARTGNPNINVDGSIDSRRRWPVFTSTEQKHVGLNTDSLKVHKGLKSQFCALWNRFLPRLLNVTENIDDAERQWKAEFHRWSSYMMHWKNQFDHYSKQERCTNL
# Description: as §1
# in vitro = assay type: cell-based; conditions: rat, PC12 cells, MTT, read-out: PC12 viability percent (cytotoxicity)
# Description: The cytotoxic effect of the selected compounds (8l and 8n) on the PC12 cell line was evaluated by using the MTT-based colorimetric assay. First, the PC12 cell line was cultivated in DMEM culture medium, supplemented with fetal bovine serum (10%). […]. Thereafter, the culture medium of each well was replaced by 20 µl MTT solution (5.0 mg/ml) and incubated to form formazan crystals, followed by dissolving them in DMSO (100.0 µl) and recording the related absorbance at 570 nm using a Synergy 2 multimode plate reader (Biotek, Winooski, VT, United States). The viability percent was then calculated according to the control well, where no compound was added to the related well. The mentioned protocol was repeated in triplicates, and the mean ± SEM of the obtained results was reported.
# Aβ1-42 = target: T4, Aβ1-42 (Homo sapiens, UniProt P05067); assay: Self-induced Aβ1-42 aggregation (ThT assay); assay type: biochemical; conditions: for Self-induced Aβ aggregation inhibition relative to donepezil: 100.0 μM, versus donepezil; for Inhibition of self-induced Aβ1-42 aggregation: Aβ1-42 10.0 μM, compound 100.0 μM, ThT
# T4 construct: was used to dissolve amyloid β1-40 (Sigma A1075); purchased Sigma A1075
# T4 sequence (P05067 672-711): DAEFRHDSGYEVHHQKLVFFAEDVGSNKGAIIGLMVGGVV
# [4] = target: T5, Aβ1-42 in the presence of AChE (Homo sapiens, UniProt P05067); assay: AChE-induced Aβ1-42 aggregation (ThT assay); assay type: biochemical; conditions: compound 100.0 μM, AChE 0.01 u/ml
# T5 construct: was used to dissolve amyloid β1-40 (Sigma A1075); purchased Sigma (Aβ); Merck or Aldrich (AChE) A1075 (Aβ)
# T5 sequence (P05067 672-711): as above
# BV-2 cells = assay: Hydrogen peroxide cell-based assay (extracellular H2O2, amyloid β-induced); design: species or system murine; conditions: 10.0 μM compound 3 h before amyloid β1-40 (5.0 μM), 24 h
# Description: The BV-2 immortalized murine microglial cell line was cultured in a high-glucose Dulbecco’s modified Eagle medium (DMEM) without phenol red supplemented with 10% of FBS, %1 of L -glutamine, and 1% of penicillin–streptomycin solution. The cells were kept in a moistened atmosphere at 37°C. Quantitation of the extracellular H2O2 produced by the BV-2 cells was detected using the Oxiselect Sta-343 hydrogen peroxide assay according to the kit’s protocol. Briefly, the cells were seeded in a 384-well plate (1,000 cells/well) overnight in 50.0 μl/well of serum and phenol red free culture medium, then treated with 10.0 μM of the compounds for 3 h, prior to amyloid β1-40 treatment (5.0 μM) and incubated for 24 h. An amount of 25.0 μl of medium was collected and mixed with 250.0 μl aqueous working solution. The absorbance values at 595 nm of each well were measured using a BMG Labtech Omega FLUOstar microplate reader. BHT (butylated hydroxytoluene, Cell biolabs) was also tested as a reference antioxidant agent ([Datki et al., 2003]).
# BuChE = target: T6, BuChE (Equus caballus, UniProt P81908); assay: Kinetic study of BuChE inhibition (Lineweaver–Burk); assay type: biochemical; conditions: secondary plot; inhibitor 0, 10.0, 20.0, 40.0 µM; read-out: Inhibitory constant (Ki) for BuChE
# T6 construct: BuChE from equine serum was employed for Ellman’s assay; purchased Merck or Aldrich; host or cells: equine serum
# T6 sequence (P81908 whole entry): as the sequence (P81908 whole entry) above
# Description: Kinetics of the BuChE inhibition activity was studied for compound 8l at different inhibitor concentrations (0, 10.0, 20.0, and 40.0 µM) as mentioned in the ChE inhibition assay section. Different concentrations of the substrate (S) and butyrylthiocholine iodide (BuChI) were applied to obtain the initial velocity measurements, in each case. The reciprocal of the S (1/S) was plotted against the initial velocity (1/v) ([Rampa et al., 2000]). […] […]. Ellman’s method was utilized to assess anti-AChE/BuChE activity of the synthesized compounds ([Ellman et al., 1961]). AChE from electrophorus electricus and BuChE from equine serum was employed for Ellman’s assay. Each compound (5.0 mg) was dissolved in 1.0 ml of DMSO. […] Briefly, a mixture of phosphate buffer (2.0 ml, 0.1 M, pH = 8.0), 60.0 µl of DTNB solution, and 20.0 µl of AChE/BuChE was prepared, and 30.0 µl of the test compounds in different concentrations were then added to the mixture. […] The change in the absorbance wavelength of 412 nm was recorded for 1 min. […] The rate of the enzymatic hydrolysis of the substrate was calculated, and % inhibition of the compounds was determined. The half maximal inhibitory concentration (IC50) values were graphically determined from inhibition curves (logarithm of the concentration of the tested compound versus percent of the inhibition).
Structure (SMILES),IC50 [1],IC50 [2],ee AChE %inhib. [3],"viability at 24 h, 50 µM (in vitro)",Self-induced Aβ aggregation inhibition relative to donepezil (Aβ1-42),Inhibition of self-induced Aβ1-42 aggregation (Aβ1-42),inhibition at 100 µM [4],H2O2 level of BV-2 cells (% ± SEM of control) (BV-2 cells),Ki (BuChE)
"COc1cccc(Cn2cc(COc3ccc(-c4cc5ccccc5oc4=O)cc3)nn2)c1 [8l, 3-(4-((1-(3-Methoxybenzyl)-1H-1,2,3-triazol-4-yl)methoxy)phenyl)-2H-chromen-2-one]",39.1 ± 1.1 µM,19.5 ± 0.9 µM,16.5%,96.5 ± 0.9%,1.44 times,61.3 ± 4.8%,36.2 ± 6.1%,97.6 ± 6.1 % of control,14.1 µM
"Cc1cc(C(C)(C)C)c(O)c(C(C)(C)C)c1 [BHT, butylated hydroxytoluene, reference compound]",–,–,–,–,–,–,–,114.4 ± 8.5 % of control,–
"COc1cccc2cc(-c3ccc(OCc4cn(Cc5ccccc5)nn4)cc3)c(=O)oc12 [8n, 3-(4-((1-Benzyl-1H-1,2,3-triazol-4-yl)methoxy)phenyl)-8-methoxy-2H-chromen-2-one]",42.5 ± 1.7 µM,45.1 ± 1.3 µM,49.9%,95.2 ± 1.1%,1.79 times,76.2 ± 6.4%,25.1 ± 8.7%,122.4 ± 8.3 % of control,–
